Source: patent US9050269B2, “Protection of virus particles from phagocytosis by expression of CD47” (priority 2009, dated 2015)

What was measured:
THP-1 macrophages [1] = test: SHP-1 inhibitor effect on phagocytosis of IgG-opsonized particles; assay type: cell-based, human
Procedure: For phagocytosis assays with CD47 attached particles at 100 nm to 1.1 μm diameter were IgG-opsonizied. THP-1 macrophage, PMA activated were treated with 0-0.5 μM NSC-87877 an SHP-1 Inhibitor (gift from Frank L. Conlon) 5 minutes prior to the addition of IgG-opsonizied particles. Phagocytosis assay occurred at 37° C. for 45 minutes and then fixed for 5 minutes with 5% formaldehyde as described for the phagocytosis assay (Fisher Scientific).
In order to specifically block SHP-1, an inhibitor NSC-87877 was used with a reported high specificity to SHP-1 (Chen et al., 2006, Mol. Pharmacol. 70(2):562-70; Langdon et al., 2007, Development 134(22):4119-30). […] The uptake of these particles was measured as the number of particles ingested per phagocyte.

SHP-1 = SHP-1 (Homo sapiens, UniProt P29350); settings: reported, Chen et al., 2006; cited from earlier work
THP-1 macrophages [2] = test: Phagocytosis of IgG-opsonized sheep RBCs by THP-1 macrophages; assay type: cell-based, human
Source text: Phagocytosis by the human-derived THP-1 macrophages of IgG-opsonized RBCs was studied by imaging in DIC microscopy. […] RBC membranes were prelabeled with PKH26, and non-engulfed RBCs were labeled with a fluorescein-labeled antibody against the Fc of the IgG-opsonin.
To more directly assess the function of the IIA isoform, the effects of both knockdown and overexpression were functionally studied.

THP-1 macrophages [3] = test: Phagocytosis of IgG-opsonized streptavidin beads with or without hCD47 by THP-1 macrophages; assay type: cell-based, human
Procedure: The extracellular immunoglobulin-like domains of human CD47 (hCD47) was recombinantly expressed with a spacer domain (Brown et al., 1994, Protein Eng. 7:515-21; Brown et al., 1998, J. Exp. Med. 188:2083-90) plus a C-terminal biotinylation site. […] The beads were opsonized by pretreatment with anti-streptavidin to again induce FcR-mediated phagocytosis (for 45 minutes at 37° C.), and non-engulfed beads were detected with a flourescein anti-Fc against the IgG-opsonin. The number of adherent IgG-opsonized beads per phagocyte was independent of hCD47 (not shown).
Human CD47 gave a Ki at high opsonin of 20 CD47/μm^2, which appears ˜10-fold less than normal human RBC densities of CD47. […] A higher baseline level of bead phagocytosis versus RBCs could redirect the fact that stiffer targets are more readily engulfed (Beningo et al., 2002, J. Cell Sci. 115:849-856).
For phagocytosis assays, macrophages were plated in 4 cm^2, or 2 cm^2 Lab-Tek II Chambered Coverglass (Nalge Nunc International, Naperville, Ill.) at 1.5×10^5/cm^2. Streptavidin polystyrene beads of different radius: 3.5 μm, 1.1 μm, 160 nm (Spherotech) and 100 nm (Ademtech) were added to macrophages at a ratio of 2:1, 20:1, 277:1, and 2206:1 respectively and incubate at 37° C. for 45 min. […] Non-phagocytosed beads were washed with PBS. Cells were fixed with 5% formaldehyde (Fisher Scientific) for 5 minutes, followed by immediate replacement with PBS. For differentiation of non-internalized beads, beads were labeled with a primary antibody, rabbit anti-streptavidin (Sigma) at 1:1000 in PBS for 20 min at 25° C. A second antibody, anti-rabbit R-PE (Sigma) was added at 1:1000 in PBS to the cells and incubated for an additional 20 minutes at 25° C. Cells were then washed with PBS/0.4% BSA and then quantified by light and fluorescent microscopy. At least 200 cells were scored per well and experiments were repeated at least three times. […]
Beads were opsonized at saturating densities of IgG, and over a 20-fold range of CD47 densities, the number of internalized beads per THP-1 was measured. […]

THP-1 macrophages [4] = assay type: cell-based, human
[5] = test system: A549 human lung epithelial cells; assay type: cell-based; settings: blebbistatin at various concentrations; MOI 270
[6] = test system: non-muscle myosin IIA at the phagocytic synapse of THP-1 macrophages; test: Protein localization to the phagocytic synapse (immunofluorescence); assay type: cell-based, human; settings: blebbistatin 50 μM, 10 min pre-incubation
Procedure: […] Opsonized beads of different sizes were added to THP-1 cells, PMA treated and immediately placed at 4° C. for 10 min to synchronize phagocytosis. […] For studies involving blebbistatin (EMD Biosciences), macrophages were treated for 10 min at 4° C. prior to temperature increase to 37° C. or for 45 min and 37° C. Macrophages treated with DMSO were used to verify no solvent effects.
Immunostaining was performed by permeabilization with 0.1% Triton X-100 in PBS for 20 min before blocking for 1 h with 5% BSA in PBS. Staining with primary antibodies was carried out for 1 h at room temperature in PBS. Following washing, samples were incubated with appropriate PE-conjugated secondary antibodies (1:1000). To label cytoskeletal proteins at the phagocytic synapse, primary Ab's prepared with Zenon Alexa 488 or Zenon Alexa 647 Fab labeling kits (Invitrogen) labeled for 45 min at room temperature. Cells were immediately fixed using 5% formaldehyde for 20 minutes and washed with PBS. Samples were analyzed by differential interference contrast (DIC) and fluorescence microscopy.
Images were acquired with an inverted microscope (Olympus; IX71) with a 60× (oil, 1.4 NA) objective using a Cascade CCD camera (Photometrics, Tuscon, Ariz.). Image acquisition was performed with Image Pro software (Media Cybernetics, Silver Spring, Md.). […]

Sequence of SHP-1 (P29350 whole entry): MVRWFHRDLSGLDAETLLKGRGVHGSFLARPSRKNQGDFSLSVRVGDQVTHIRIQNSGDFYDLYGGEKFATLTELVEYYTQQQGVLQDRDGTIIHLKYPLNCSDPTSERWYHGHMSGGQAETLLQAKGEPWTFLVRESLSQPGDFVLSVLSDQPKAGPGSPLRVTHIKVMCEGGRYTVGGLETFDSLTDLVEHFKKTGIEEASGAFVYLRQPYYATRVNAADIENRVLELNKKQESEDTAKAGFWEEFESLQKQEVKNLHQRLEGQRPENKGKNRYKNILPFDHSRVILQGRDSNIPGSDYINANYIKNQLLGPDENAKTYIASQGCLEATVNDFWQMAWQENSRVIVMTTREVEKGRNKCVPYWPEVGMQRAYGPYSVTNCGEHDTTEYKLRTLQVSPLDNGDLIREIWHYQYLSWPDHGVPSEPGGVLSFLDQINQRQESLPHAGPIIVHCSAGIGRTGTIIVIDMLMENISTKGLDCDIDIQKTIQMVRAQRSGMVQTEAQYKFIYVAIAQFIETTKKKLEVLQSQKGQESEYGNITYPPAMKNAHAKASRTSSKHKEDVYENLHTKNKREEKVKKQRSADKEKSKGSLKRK

SMILES | particles ingested per phagocyte, hCD47 particles (THP-1 macrophages [1]; 62.5 nM NSC-87877, 100 nm IgG-opsonized particles with hCD47) | particles ingested per phagocyte, beads without hCD47 (THP-1 macrophages [1]; 62.5 nM NSC-87877, 100 nm IgG-opsonized particles without hCD47) | particles ingested per phagocyte, hCD47 particles (THP-1 macrophages [1]; NSC-87877, 1.1 μm IgG-opsonized particles with hCD47) | IC50 (SHP-1) | inhibition of ShRBC phagocytosis by GFP-NMM IIA expressing THP-1 (THP-1 macrophages [2]; 5 μM blebbistatin) | engulfment of sheep RBCs by THP-1 macrophages (THP-1 macrophages [2]; compared with CD47 on human RBCs) | Ki (THP-1 macrophages [2]; dose-response, sheep RBCs engulfed by THP-1 macrophages, read-out: Ki-blebb for blebbistatin inhibition of phagocytosis) | uptake of IgG-opsonized particles by THP-1 (THP-1 macrophages [3]; 50 μM blebbistatin, 100 nm particles, vs DMSO) | uptake of IgG-opsonized particles by THP-1 (THP-1 macrophages [3]; blebbistatin, 1.1 μm particles) | phagocytosis of CD47-null beads (THP-1 macrophages [3]; blebbistatin, uncoated approximately 2.1 μm beads) | transduction of control lentiviral particles (THP-1 macrophages [4]; 50 μM Blebbistatin vs DMSO) | transduction of overexpressed hCD47 lentiviral particles (THP-1 macrophages [4]; 50 μM Blebbistatin vs DMSO) | transduction efficiency of control lentivirus (THP-1 macrophages [4]; blebbistatin at various concentrations, MOI 700) | lentivirus transduction in A549 cells [5] | enrichment of NMM IIA at synaptic contacts with sheep RBC targets [6]
O=S(=O)(O)c1ccc2cc(N=Nc3cc(S(=O)(=O)O)c4cccnc4c3O)ccc2c1 [NSC-87877] | an increase of ingested particles | no statistical difference | increase in uptake comparable to uncoated IgG-opsonizied particles | 0.5 µM | – | – | – | – | – | – | – | – | – | – | –
Cc1ccc2c(c1)C(=O)C1(O)CCN(c3ccccc3)C1=N2 (stereo not drawn) [blebbistatin] | – | – | – | – | ~50% | inhibited | 5 µM | decrease in uptake | comparable results | inhibited phagocytosis of CD47-null beads to a level similar as hCD47 beads | inhibited transduction | no changes were observed | dose dependent response | no effect | inhibited enrichment of NMM IIA
